In assay [1] the test system is TaQ8GTB9. Briefly: Pyroxasulfone metabolizing activity based on fatty acid content in cultured rice cells. It counts as cell-based, wheat. The note with it: cultured rice cells with TaQ8GTB9 gene; 10^−7M or 10^−6M pyroxasulfone, liquid culture 14 to 17 days. Here is the method: The transgenic cultured rice cells thus prepared were used for liquid culture in the presence of pyroxasulfone. Pyroxasulfone was added to the liquid medium as an acetone solution. The final acetone concentration was 0.1%. When liquid culture was carried out, cultured rice cells transformed with KLB-279 (a plasmid comprising Act1p (rice actin 1 promoter)::sGFP::NOSt incorporated into the MCS of PalSelect R-4) were designated as the control samples. Liquid culture was carried out as described below. […]
Fatty acid was extracted using undecenoic acid (C11:1) as an internal standard. As analytical standards, Supelco FAME mix containing C14:0, C16:0, C16:1, C18:0, C18:1, C18:2, C18:3, C20:0, C22:0, C22:1, and C24:0 and other fatty acid methyl esters (C11:1, C15:0, C20:1, and C26:0) were used, and calibration curves thereof were prepared, followed by quantification. […] Quantitative and qualitative analyses were carried out as methyl esters, although fatty acid methyl esters were converted into fatty acids at the time of quantitative analysis. […]

The test system of assay [2] is wild-type rapeseed plants (variety: Westar). Description: Rapeseed sensitivity test 2 (agar medium), wild type. Type of assay: in vivo, Brassica napus. The note with it: 0.1 μM pyroxasulfone, 22° C., 2 weeks. From the text: In order to investigate the extent of pyroxasulfone resistance of the transgenic rapeseed plants comprising the […] gene introduced therein compared to wild-type plants, the growth of rapeseed was examined in an agar medium containing pyroxasulfone. Wild-type rapeseed plants (variety: Westar) and transgenic rapeseed plants comprising the TaQ8GTC0 gene introduced therein were subjected to the growth inhibitory test in an agar medium, so as to examine the resistance thereof to pyroxasulfone.
The medium (1 liter) used in the test was composed of 1× Murashige-Skoog (MS) media (a bag), thiamin hydrochloride (3 μg/ml), nicotinic acid (5 μg/ml), pyridoxin hydrochloride (0.5 μg/ml), and 1% (w/v) sucrose. The composition was added to a 1-liter beaker, a pH was adjusted to 5.7, and the volume of the composition was adjusted to 1 liter, followed by the addition of 8 g (0.8%) of agar. Thereafter, the composition was autoclaved, the temperature was cooled to room temperature, and pyroxasulfone (acetone solution) at a given concentration was added. […]
The sensitivity of rapeseed was examined in agar media comprising pyroxasulfone (0.1 μM, 1 μM, 10 μM, and 100 μM). […] Values in the table in FIGS. 41 and 42 are expressed as the mean±standard deviation (n=4 to 5). Values in FIG. 43 are expressed as the means (n=4 to 5).

Regarding `Cn1nc(C(F)(F)F)c(CS(=O)(=O)C2=NOC(C)(C)C2)c1OC(F)F` [Pyroxasulfone, 3-[5-(difluoromethoxy)-1-methyl-3-(trifluoromethyl)pyrazol-4-ylmethylsulfonyl]-4,5-dihydro-5,5-dimethyl-1,2-oxazole], in assay [1], the “pyroxasulfone metabolizing activity (C15:0 and VLCFA contents)” value is on record as “no pyroxasulfone metabolizing activity”. Further, in assay [2], the “inhibition ratio on foliage leaf development” value came to 8.4±1.4% and the “inhibition ratio on plant height” value came to 8.9±2.8%.
